In ChEMBL document CHEMBL1139321, “Discovery of novel spirocyclopropyl hydroxamate and carboxylate compounds as TACE inhibitors” (Bioorg Med Chem Lett, 2009) one finds IC50 and Ki data, which are given here for 15 compounds.

One assay has as its system Blood. Description: Inhibition of LPS-induced TNFalpha production in human whole blood after 1 hr by ELISA. The format is functional, tissue-based. (ELISA stands for enzyme-linked immunosorbent assay.)
In assay [1] the target is Disintegrin and metalloproteinase domain-containing protein 17 (Homo sapiens, UniProt P78536).
Chain of Disintegrin and metalloproteinase domain-containing protein 17 (P78536 whole entry, the tested form may be a part): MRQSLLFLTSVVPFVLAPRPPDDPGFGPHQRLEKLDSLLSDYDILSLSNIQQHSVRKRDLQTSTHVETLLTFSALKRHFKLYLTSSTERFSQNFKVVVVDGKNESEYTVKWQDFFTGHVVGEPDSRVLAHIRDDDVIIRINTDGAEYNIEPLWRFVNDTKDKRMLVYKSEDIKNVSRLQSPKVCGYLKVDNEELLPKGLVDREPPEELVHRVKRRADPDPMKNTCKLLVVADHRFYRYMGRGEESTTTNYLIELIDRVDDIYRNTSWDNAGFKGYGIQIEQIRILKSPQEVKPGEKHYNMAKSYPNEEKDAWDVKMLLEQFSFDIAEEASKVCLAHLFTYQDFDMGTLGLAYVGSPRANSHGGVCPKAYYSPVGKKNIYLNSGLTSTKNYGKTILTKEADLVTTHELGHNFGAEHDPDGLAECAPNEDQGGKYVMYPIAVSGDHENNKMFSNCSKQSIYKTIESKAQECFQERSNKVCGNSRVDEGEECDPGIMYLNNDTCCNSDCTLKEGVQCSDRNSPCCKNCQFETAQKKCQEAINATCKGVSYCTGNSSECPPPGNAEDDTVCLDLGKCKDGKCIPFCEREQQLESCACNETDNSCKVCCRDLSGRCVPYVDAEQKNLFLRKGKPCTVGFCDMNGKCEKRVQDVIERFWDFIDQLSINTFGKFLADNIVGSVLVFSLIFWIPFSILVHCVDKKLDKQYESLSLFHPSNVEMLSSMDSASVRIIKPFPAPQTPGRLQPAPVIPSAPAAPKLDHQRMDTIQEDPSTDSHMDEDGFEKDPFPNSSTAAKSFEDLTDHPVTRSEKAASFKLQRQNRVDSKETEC
Description: Inhibition of TACE catalytic domain by FRET assay

Regarding `O=C(NO)[C@H]1C[C@@]12CC(c1ccc(OCc3cc(-c4ccccc4)nc4ccccc34)c(F)c1)NC2=O` (mixture of isomers), in the assay with Blood, the 50% inhibitory concentration (IC50) – broadly, the concentration that gives 50% inhibition – was greater than 100 nM. The Ki (commonly the dissociation constant of the complex between target and ligand, obtained from inhibition or displacement) in assay [1] worked out at 6.7 nM. For `O=C(NO)[C@H]1C[C@@]12CC(c1ccc(OCc3cc(-c4ccccc4)nc4ccccc34)cc1)NC2=O` (mixture of isomers) the same measures were greater than 100 nM and 30 nM. The corresponding values for `O=C(O)[C@H]1C[C@@]12CC(c1ccc(OCc3cc(-c4ccccc4)nc4ccccc34)c(F)c1)NC2=O` (mixture of isomers) are greater than 100 nM and 40 nM. For the compound `O=C(O)[C@H]1C[C@@]12CC(c1ccc(OCc3cc(C(F)(F)F)nc4ccccc34)cc1)NC2=O` (mixture of isomers), the IC50 in the assay with Blood is greater than 100 nM. Moreover, the Ki in assay [1] was 2140 nM. For `O=C(NO)[C@H]1C[C@@]12CC(c1ccc(OCc3cc(C(F)(F)F)nc4ccccc34)cc1)NC2=O` (mixture of isomers) the same measures were greater than 100 nM and 53 nM. Turning to `O=C(NO)[C@H]1C[C@@]12CC(c1ccc(OCc3cc(-c4cccnc4)nc4ccccc34)cc1)NC2=O` (mixture of isomers), the affinity in assay [1] corresponds to a Ki of 32 nM.

Consider `COC(=O)[C@H]1C[C@@]12CC(c1ccc(OCc3cc(-c4ccccc4)nc4ccccc34)c(F)c1)N(C)C2=O` (mixture of isomers), for which, in assay [1], the inhibition constant Ki was greater than 50000 nM.

Turning to `Cc1cc(COc2ccc(C3C[C@@]4(C[C@@H]4C(=O)NO)C(=O)N3)cc2)c2ccccc2n1` (stereo partly specified), the inhibitory constant (Ki) in assay [1] came out at 32 nM.

Turning to `O=C(O)[C@H]1C[C@@]12CC(c1ccc(OCc3cc(-c4cccnc4)nc4ccccc34)cc1)NC2=O` (mixture of isomers), the affinity in assay [1] corresponds to a Ki of 3220 nM. On the same count and under the same terms, the figure for `O=C(NO)[C@H]1C[C@@]12CC(c1ccc(OCc3cc(-c4ccncc4)nc4ccccc34)cc1)NC2=O` (stereo partly specified) is 33 nM. In turn, `O=C(O)[C@H]1C[C@@]12CC(c1ccc(OCc3cc(-c4ccccc4)nc4ccccc34)cc1)NC2=O` (mixture of isomers) showed a 50% inhibitory concentration (IC50) in the assay on Blood greater than 100 nM. Besides, in assay [1], the Ki is 143 nM. For the compound `O=C(O)[C@H]1C[C@@]12CC(c1ccc(OCc3cc(-c4ccncc4)nc4ccccc34)cc1)NC2=O` (mixture of isomers), the inhibition constant Ki in assay [1] was found to be 673 nM.

The compound `CN1C(=O)[C@@]2(CC1c1ccc(OCc3cc(-c4ccccc4)nc4ccccc34)c(F)c1)C[C@@H]2C(=O)NO` (mixture of isomers) showed a Ki in assay [1] of 137 nM. On the same count and under the same terms, in the case of `CN1C(=O)[C@@]2(CC1c1ccc(OCc3cc(-c4ccccc4)nc4ccccc34)c(F)c1)C[C@@H]2C(=O)O` (mixture of isomers) it was 94 nM; in that of `Cc1cc(COc2ccc(C3C[C@@]4(C[C@@H]4C(=O)O)C(=O)N3)cc2)c2ccccc2n1` (mixture of isomers), 3070 nM.
